Measurements from patent US6132740A, “Resorcinol derivatives” (Pfizer Inc., priority 1998, dated 2000).
“And” between values parts separate entries of the source, which are not always exact repeats. Identical values can stand only once.

Key:
human tyrosinase = target: T1, human tyrosinase (Homo sapiens, UniProt P14679); test: Tyrosinase (DOPA oxidase) assay using cell lysate; type: biochemical; details: SKMEL 188 human melanoma cell lysate, L-DOPA 100 μg/ml, 8 hours, read at 405 nm
T1 construct: endogenous in cells; host or cells: SKMEL 188 human melanoma cell line (licensed from Memorial Sloan-Kettering), lysate
T1 sequence (P14679 19-529): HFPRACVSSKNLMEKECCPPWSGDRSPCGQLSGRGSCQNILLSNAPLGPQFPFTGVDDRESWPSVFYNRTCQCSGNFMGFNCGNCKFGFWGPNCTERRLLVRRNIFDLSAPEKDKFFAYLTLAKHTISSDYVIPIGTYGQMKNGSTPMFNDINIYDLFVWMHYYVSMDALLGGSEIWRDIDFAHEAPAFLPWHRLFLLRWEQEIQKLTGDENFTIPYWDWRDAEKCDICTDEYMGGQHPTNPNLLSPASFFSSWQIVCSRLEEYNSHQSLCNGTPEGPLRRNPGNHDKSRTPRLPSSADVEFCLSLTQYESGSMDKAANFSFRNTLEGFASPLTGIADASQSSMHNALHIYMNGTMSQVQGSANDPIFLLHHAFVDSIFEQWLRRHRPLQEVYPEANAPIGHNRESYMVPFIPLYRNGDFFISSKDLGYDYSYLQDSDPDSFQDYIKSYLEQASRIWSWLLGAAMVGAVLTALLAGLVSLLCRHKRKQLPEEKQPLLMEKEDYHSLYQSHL
Experimental: 1. Tyrosinase (DOPA oxidase) Assay Using Cell Lysate:
Human melanoma cell line, SKMEL 188 (licensed from Memorial Sloan-Kettering), is used in the cell lysate assay and the screen. In the assay, compounds and L-dihydroxyphenylalanine (L-DOPA) (100 μg/ml) are incubated with the cell lysates containing human tyrosinase for 8 hours before the plates are read at 405 nm. Potency of the compounds in DOPA oxidase assay is correlated very well with that in tyrosine hydroxylase assay using 3H-tyrosine as a substrate.

black guinea pigs = test: In vivo depigmentation study in black guinea pigs; set-up: species or system guinea pig; details: for depigmentation of skin (in words): 5% in ethanol:propylene glycol 70:30, twice daily, 5 days per week for 4-8 weeks, black or dark brown guinea pigs; for reduction of pigmentation in treated ears (in words) / reversibility of the depigmentation effect (in words) / Depigmentation effect, Δ light reflectance (treated ear - untreated ear), 1 week post-treatment / Depigmentation effect, Δ light reflectance (treated ear - untreated ear), 3-week / Depigmentation effect, Δ light reflectance (treated ear - untreated ear), 6-week / Depigmentation effect, Δ light reflectance (treated ear - untreated ear), 8.5 week: 5% in ethanol:propylene glycol (70:30); for reduction of pigmentation in treated ears (in words) / reversibility of the depigmentation effect (in words): ears of black guinea pigs; for reversibility of the depigmentation effect (in words): after ceasing treatment; for Depigmentation effect, Δ light reflectance (treated ear - untreated ear), 1 week post-treatment / Depigmentation effect, Δ light reflectance (treated ear - untreated ear), 3-week / Depigmentation effect, Δ light reflectance (treated ear - untreated ear), 6-week / Depigmentation effect, Δ light reflectance (treated ear - untreated ear), 8.5 week: topical to ears of black guinea pigs, one value per animal; for Depigmentation effect, Δ light reflectance (treated ear - untreated ear), 3-week / Depigmentation effect, Δ light reflectance (treated ear - untreated ear), 6-week / Depigmentation effect, Δ light reflectance (treated ear - untreated ear), 8.5 week: positive value indicates depigmentation
Experimental: Black or dark brown guinea pigs with homogeneous skin color can be used in this study. A solution of the test compound of formula I (5% in ethanol:propylene glycol, 70:30) and the vehicle control are applied to the animals twice daily, 5 days per week for 4-8 weeks.
In vivo experiments were carried out to determine the depigmenting effects of 4-cyclohexylresorcinol and 4-cyclopentylresorcinol using the assay described above (in vivo study). Thus, 5% 4-cyclohexylresorcinol and 5% 4-cyclopentylresorcinol, each in ethanol:propylene glycol (70:30), were administered separately to the ears of black guinea pigs. Depigmentation was determined by subtracting the light reflectance of untreated ears from the light reflectance of treated ears.

| Compound | IC50 (human tyrosinase) | depigmentation of skin (in words) (black guinea pigs) | reduction of pigmentation in treated ears (in words) (black guinea pigs) | reversibility of the depigmentation effect (in words) (black guinea pigs) | Depigmentation effect, Δ light reflectance (treated ear - untreated ear), 1 week post-treatment (black guinea pigs) | Depigmentation effect, Δ light reflectance (treated ear - untreated ear), 3-week (black guinea pigs) | Depigmentation effect, Δ light reflectance (treated ear - untreated ear), 6-week (black guinea pigs) | Depigmentation effect, Δ light reflectance (treated ear - untreated ear), 8.5 week (black guinea pigs) |
| --- | --- | --- | --- | --- | --- | --- | --- | --- |
| Oc1ccc(C2CCCCC2)c(O)c1 [4-cyclohexylresorcinol, 4-Cyclohexylresorcinol] | 0.3 µM | depigmentation of skin was visualized | reduced pigmentation in treated ears starting 3 weeks after initial treatment | reversible, and repigmentation partially resumed one week after ceasing treatment | 1 and 0 | 13 and 0 and 14 and 3 | 8 and 0 and 14 and 7 | 6 and 7 and 19 |
| Oc1ccc(C2CCCC2)c(O)c1 [4-cyclopentylresorcinol, 4-Cyclopentylresorcinol] |  | depigmentation of skin was visualized | reduced pigmentation in treated ears starting 3 weeks after initial treatment | reversible, and repigmentation partially resumed one week after ceasing treatment | 6 | 15 and 9 and 4 | 12 and 9 | 10 and 18 and 7 |
